Data as given in US12612412B2, “Antiviral heterocyclic compounds” (Enanta Pharmaceuticals, Inc., priority 2021, dated 2026).

Tested on: genotype A, "Long" strain RSV
Assay: RSV-A assay (CPE protection in Hep-2 cells, ATPlite readout)
Type: cell-based, Human respiratory syncytial virus (HRSV)
Details: RSV-A Long strain, MOI 0.1, CPE protection, read-out: Human RSV-A (“Long”) EC50
Method in brief: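 Compound effect on RSV-induced CPE: Hep-2 monolayers, MOI 0.1, duplicate 2-fold titrations, 5-day culture in 10% FBS DMEM. Readout is ATP-based luminescence, normalised to virus-only and no-virus controls, giving EC50.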

`COc1cc(C(=O)NC[C@@](O)(c2cc3c(c(-c4ccc(F)c(Br)c4F)n2)OC[C@]3(C)C(N)=O)C(F)(F)F)cc2cn(C3CC3)nc12` [Example 1220] was tested, and the EC50 was < 0.2 µM.

Same assay, conditions: human respiratory syncytial virus, RSV-A Long strain, MOI 0.1, CPE protection, read-out: Human RSV-A (“Long”) EC50

`COc1cc(C(=O)NC[C@](O)(c2cc3c(c(-c4ccc(F)cc4)n2)OC[C@]3(C)C(=O)NC2COC2)C(F)(F)F)cc2cn(C3CC3)nc12` [Example 1174] and `COc1cc(C(=O)NC[C@](O)(c2cc3c(c(-c4ccc(F)cc4)n2)OC[C@]3(C)C(=O)NC2(C)CC2)C(F)(F)F)cc2cn(C3CC3)nc12` [Example 1176] cannot be ordered by EC50: < 0.2 µM for the first, < 0.2 µM for the second.

`COc1cc(C(=O)NC[C@](O)(c2cc3c(c(-c4ccc(F)cc4)n2)OC[C@]3(C)C(=O)NCCC(C)(C)O)C(F)(F)F)cc2cn(C3CC3)nc12` [Example 1175] and `CNC(=O)[C@@]1(C)COc2c1cc([C@](O)(CNC(=O)c1cc(OC)c3nn(C4CC4)cc3c1)C(F)(F)F)nc2-c1ccc(F)c(F)c1Cl` [Example 1201] cannot be ordered by EC50: < 0.2 µM for the first, < 0.2 µM for the second.

`C[C@]1(C(N)=O)COc2c1cc([C@@](O)(CNC(=O)c1cc(OC3CC3)c3nn(C(F)F)cc3c1)C1CC1)nc2-c1ccc(F)c(F)c1Cl` [Example 1197] and `C[C@]1(C(N)=O)COc2c1cc([C@@](O)(CNC(=O)c1cc(OC3CC3)c3nn(C(F)F)cc3c1)C1CC1)nc2-c1cc(Cl)ccc1F` [Example 1199] cannot be ordered by EC50: < 0.2 µM for the first, < 0.2 µM for the second.

`C[C@]1(C(N)=O)COc2c1cc([C@@](O)(CNC(=O)c1cc(OC3CC3)c3nn(C(F)F)cc3c1)C1CC1)nc2-c1cccc(Cl)c1F` [Example 1198] and `C[C@]1(C(N)=O)COc2c1cc([C@@](O)(CNC(=O)c1cc(OC(F)F)c3nn(C4CC4)cc3c1)C1CC1)nc2-c1cc(Cl)c(F)cc1F` [Example 1212] cannot be ordered by EC50: < 0.2 µM for the first, < 0.2 µM for the second.

`Cc1cnc2c(OC(F)F)cc(C(=O)NC[C@](O)(c3cc4c(c(-c5cc(Cl)ccc5F)n3)OC[C@]4(C)C(N)=O)C3CC3)cc2c1` [Example 1200] and `Cc1cnc2c(OC(F)F)cc(C(=O)NC[C@](O)(c3cc4c(c(-c5cccc(F)c5Cl)n3)OC[C@]4(C)C(N)=O)C3CC3)cc2c1` [Example 1211] cannot be ordered by EC50: < 0.2 µM for the first, < 0.2 µM for the second.

`CNC(=O)[C@@]1(C)COc2c1cc([C@@](O)(CNC(=O)c1cc(OC)c3nn(C4CC4)cc3c1)C(F)(F)F)nc2-c1ccc(F)c(F)c1Cl` [Example 1202] and `COc1cc(C(=O)NC[C@](O)(c2cc3c(c(-c4ccc(F)c(F)c4Cl)n2)OC[C@]3(C)C(=O)NC2(C)CC2)C(F)(F)F)cc2cn(C3CC3)nc12` [Example 1204] cannot be ordered by EC50: < 0.2 µM for the first, < 0.2 µM for the second.

`CNC(=O)[C@@]1(C)COc2c1cc([C@@](O)(CNC(=O)c1cc(OC)c3nn(C4CC4)cc3c1)C(F)(F)F)nc2-c1cc(Cl)c(F)cc1F` [Example 1203] and `COc1cc(C(=O)NC[C@](O)(c2cc3c(c(-c4cc(Cl)c(F)cc4F)n2)OC[C@]3(C)C(=O)NC2(C)CC2)C(F)(F)F)cc2cn(C3CC3)nc12` [Example 1205] cannot be ordered by EC50: < 0.2 µM for the first, < 0.2 µM for the second.

`Cc1cnc2c(OC(F)F)cc(C(=O)NC[C@](O)(c3cc4c(c(-c5cccc(Br)c5F)n3)OC[C@]4(C)C(N)=O)C3CC3)cc2c1` [Example 1206] and `Cc1cnc2c(OC(F)F)cc(C(=O)NC[C@](O)(c3cc4c(c(-c5ccc(F)c(Br)c5F)n3)OC[C@]4(C)C(N)=O)C3CC3)cc2c1` [Example 1207] cannot be ordered by EC50: < 0.2 µM for the first, < 0.2 µM for the second.

`Cc1cnc2c(OC(F)F)cc(C(=O)NC[C@](O)(c3cc4c(c(-c5ccc(F)c(C(F)(F)F)c5)n3)OC[C@]4(C)C(N)=O)C3CC3)cc2c1` [Example 1208] and `Cc1cnc2c(OC(F)F)cc(C(=O)NC[C@](O)(c3cc4c(c(-c5ccc(C(F)(F)F)cc5)n3)OC[C@]4(C)C(N)=O)C3CC3)cc2c1` [Example 1209] cannot be ordered by EC50: < 0.2 µM for the first, < 0.2 µM for the second.

First: COc1cc(C(=O)NC[C@](O)(c2cc3c(c(-c4ccc5c(c4)OC(F)(F)O5)n2)OC[C@]3(C)C(N)=O)C2CC2)cc2cc(C(F)F)nnc12 [Example 1210]
Second: COc1cc(C(=O)NC[C@@](O)(c2cc3c(c(-c4ccc5c(c4)OC(F)(F)C5(F)F)n2)OC[C@]3(C)C(N)=O)C2CC2)cc2cn(C3CC3)nc12 [Example 1237]
The EC50 of the first is lower: < 0.2 µM for the first, > 0.2 µM for the second.

`Cc1cnc2c(OC(F)F)cc(C(=O)NC[C@](O)(c3cc4c(c(-c5cc(F)c(F)c(Cl)c5)n3)OC[C@]4(C)C(N)=O)C3CC3)cc2c1` [Example 1213] and `Cc1cnc2c(OC(F)F)cc(C(=O)NC[C@](O)(c3cc4c(c(-c5ccc(Cl)c(F)c5F)n3)OC[C@]4(C)C(N)=O)C3CC3)cc2c1` [Example 1214] cannot be ordered by EC50: < 0.2 µM for the first, < 0.2 µM for the second.

`Cc1cnc2c(OC(F)F)cc(C(=O)NC[C@](O)(c3cc4c(c(-c5ccc(F)cc5Cl)n3)OC[C@]4(C)C(N)=O)C3CC3)cc2c1` [Example 1215] and `[2H]c1nc2c(OC)cc(C(=O)NC[C@](O)(c3cc4c(c(-c5cc(Cl)c(F)cc5F)n3)OC[C@]4(C)C(N)=O)C3CC3)cc2cc1Br` [Example 1216] cannot be ordered by EC50: < 0.2 µM for the first, < 0.2 µM for the second.

First: COc1cc(C(=O)NC[C@](O)(c2nc(-c3ccc(F)c(Cl)c3F)c3c(c2Cl)[C@@](C)(C(N)=O)CO3)C2CC2)cc2cn(C3CC3)nc12 [Example 1217]
Second: COc1cc(C(=O)NC[C@](O)(c2cc3c(c(-c4c(F)ccc(F)c4Cl)n2)OC[C@]3(C)C(N)=O)C(F)(F)F)cc2cn(C3CC3)nc12 [Example 1244]
The EC50 of the first is higher: > 0.2 µM for the first, < 0.2 µM for the second. The second is the more potent here.

`COc1cc(C(=O)NC[C@@](O)(c2cc3c(c(-c4cc(Br)c(F)cc4F)n2)OC[C@]3(C)C(N)=O)C(F)(F)F)cc2cn(C3CC3)nc12` [Example 1222] and `COc1cc(C(=O)NC[C@@](O)(c2cc3c(c(-c4cc(F)cc(F)c4F)n2)OC[C@]3(C)C(N)=O)C(F)(F)F)cc2cn(C3CC3)nc12` [Example 1246] cannot be ordered by EC50: < 0.2 µM for the first, < 0.2 µM for the second.

`COc1cc(C(=O)NC[C@@](O)(c2cc3c(c(-c4cccc(Br)c4F)n2)OC[C@]3(C)C(N)=O)C(F)(F)F)cc2cn(C3CC3)nc12` [Example 1224] and `COc1cc(C(=O)NC[C@](O)(c2cc3c(c(-c4cccc(Br)c4F)n2)OC[C@]3(C)C(N)=O)C(F)(F)F)cc2cn(C3CC3)nc12` [Example 1225] cannot be ordered by EC50: < 0.2 µM for the first, < 0.2 µM for the second.

Going from `COc1cc(C(=O)NCC(O)(c2cc3c(c(-c4ccc5c(c4)OC(F)(F)C5(F)F)n2)OC[C@]3(C)C(N)=O)C(F)(F)F)cc2cn(C3CC3)nc12` (stereo partly drawn) [Example 1236] to `COc1cc(C(=O)NC[C@](O)(c2cc3c(c(-c4ccc5c(c4)OC(F)(F)C5(F)F)n2)OC[C@]3(C)C(N)=O)C2CC2)cc2cn(C3CC3)nc12` [Example 1238], the EC50 falls from > 0.2 µM to < 0.2 µM.

`COc1cc(C(=O)NC[C@@](O)(c2cc3c(c(C4=CCN(C(=O)OC(C)(C)C)CC4)n2)OC[C@]3(C)C(N)=O)C(F)(F)F)cc2cn(C3CC3)nc12` [Example 1239] and `COc1cc(C(=O)NC[C@](O)(c2cc3c(c(C4=CCN(C(=O)OC(C)(C)C)CC4)n2)OC[C@]3(C)C(N)=O)C(F)(F)F)cc2cn(C3CC3)nc12` [Example 1241] cannot be ordered by EC50: > 0.2 µM for the first, > 0.2 µM for the second.

Compared with `COc1cc(C(=O)NCC(O)(c2cc3c(c(C4=CCOCC4)n2)OC[C@]3(C)C(N)=O)C(F)(F)F)cc2cn(C3CC3)nc12` (stereo partly drawn) [Example 1240], `COc1cc(C(=O)NC[C@](O)(c2cc3c(c(-c4cc(F)cc(Cl)c4F)n2)OC[C@]3(C)C(N)=O)C(F)(F)F)cc2cn(C3CC3)nc12` [Example 1242] is lower in EC50: > 0.2 µM for the first, < 0.2 µM for the second. The second is the more potent here.

`COc1cc(C(=O)NC[C@](O)(c2cc3c(c(-c4cc(Cl)cc(F)c4F)n2)OC[C@]3(C)C(N)=O)C(F)(F)F)cc2cn(C3CC3)nc12` [Example 1243] and `COc1cc(C(=O)NCC(O)(c2cc3c(c(-c4cc(F)c(Cl)c(F)c4)n2)OC[C@]3(C)C(N)=O)C(F)(F)F)cc2cn(C3CC3)nc12` (stereo partly drawn) [Example 1245] cannot be ordered by EC50: < 0.2 µM for the first, < 0.2 µM for the second.
